Data taken from PubChem BioAssay (NCI).
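Interpolation was linear, between the two tested concentrations surrounding the appropriate level; five concentrations were tested over 48 hours in 96-well plates. TGI: total growth inhibition.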

Columns and labels:
Assay in all cases: NCI-60 cell line screen, 48 h
786-0 renal = test system: 786-0 renal
A549 NSCLC = test system: A549 NSCLC
ACHN renal = test system: ACHN renal
CAKI-1 renal = test system: CAKI-1 renal
CCRF-CEM leukemia = test system: CCRF-CEM leukemia
COLO 205 colon = test system: COLO 205 colon
DLD-1 colon = test system: DLD-1 colon
DMS 114 small cell lung = test system: DMS 114 small cell lung
DMS 273 small cell lung = test system: DMS 273 small cell lung
EKVX NSCLC = test system: EKVX NSCLC
HCC-2998 colon = test system: HCC-2998 colon
HCT-116 colon = test system: HCT-116 colon
HCT-15 colon = test system: HCT-15 colon
HL-60(TB) leukemia = test system: HL-60(TB) leukemia
HOP-18 NSCLC = test system: HOP-18 NSCLC
HOP-92 NSCLC = test system: HOP-92 NSCLC
HT29 colon = test system: HT29 colon
K-562 leukemia = test system: K-562 leukemia
KM12 colon = test system: KM12 colon
KM20L2 colon = test system: KM20L2 colon
LOX IMVI melanoma = test system: LOX IMVI melanoma
LXFL 529 NSCLC = test system: LXFL 529 NSCLC
M14 melanoma = test system: M14 melanoma
M19-MEL melanoma = test system: M19-MEL melanoma
MALME-3M melanoma = test system: MALME-3M melanoma
MOLT-4 leukemia = test system: MOLT-4 leukemia
NCI-H226 lung = test system: NCI-H226 lung
NCI-H23 lung = test system: NCI-H23 lung
NCI-H460 lung = test system: NCI-H460 lung
NCI-H522 lung = test system: NCI-H522 lung
OVCAR-3 ovarian = test system: OVCAR-3 ovarian
OVCAR-4 ovarian = test system: OVCAR-4 ovarian
OVCAR-5 ovarian = test system: OVCAR-5 ovarian
OVCAR-8 ovarian = test system: OVCAR-8 ovarian
RPMI-8226 leukemia = test system: RPMI-8226 leukemia
RXF 393 renal = test system: RXF 393 renal
SF-268 CNS = test system: SF-268 CNS
SF-295 CNS = test system: SF-295 CNS
SF-539 CNS = test system: SF-539 CNS
SK-MEL-2 melanoma = test system: SK-MEL-2 melanoma
SK-MEL-28 melanoma = test system: SK-MEL-28 melanoma
SK-MEL-5 melanoma = test system: SK-MEL-5 melanoma
SK-OV-3 ovarian = test system: SK-OV-3 ovarian
SN12C renal = test system: SN12C renal
SNB-19 CNS = test system: SNB-19 CNS
SNB-78 CNS = test system: SNB-78 CNS
SR leukemia = test system: SR leukemia
SW-620 colon = test system: SW-620 colon
TK-10 renal = test system: TK-10 renal
U251 CNS = test system: U251 CNS
UACC-257 melanoma = test system: UACC-257 melanoma
UACC-62 melanoma = test system: UACC-62 melanoma
UO-31 renal = test system: UO-31 renal
A498 renal = test system: A498 renal
HOP-62 NSCLC = test system: HOP-62 NSCLC
IGROV1 ovarian = test system: IGROV1 ovarian
SNB-75 CNS = test system: SNB-75 CNS
XF 498 CNS = test system: XF 498 CNS

Measured: TGI

COc1cc(C=C2C(=O)OC(C)(C)OC2=O)cc(OC)c1OC
not listed: A498 renal | HOP-62 NSCLC | IGROV1 ovarian | SNB-75 CNS | XF 498 CNS
> 100 µM: all other assays above

c1cc(C2O[C@H]3CCCN3[C@@H]2c2ccncc2)ccn1 (stereo partly specified)
not listed: HCC-2998 colon | HL-60(TB) leukemia | HOP-18 NSCLC | HOP-92 NSCLC | SR leukemia
> 100 µM: all other assays above
